{"source": "paper PMC8069289", "about": "(Molecules, 2021)", "key": {"Drosophila melanogaster [1]": {"test_system": "Drosophila melanogaster", "assay": "Antitoxicity assay, combined treatment with 0.15 M H2O2", "conditions": "0.15 M hydrogen peroxide alone, positive toxicant control concurrent to each test substance", "experimental": "Toxicity was assayed according to our standard protocols. CRB and SFRB were tested at five concentrations: 1, 4, 8.12, 32.5 and 130 mg/mL and 0.16, 0.625, 1.25, 5 and 20 mg/mL, respectively. […] Tested groups consisted of larvae fed with Drosophila Instant Medium (Formula 4–24, Carolina Biological Supply, Burlington, NC, USA) supplemented with the assessed compounds concentrations. Emerging adults of all groups were counted and toxicity was determined as the percentage of hatched individuals in each treatment compared with the negative control."}, "Drosophila melanogaster [2]": {"test_system": "Drosophila melanogaster", "assay": "Genotoxicity, wing spot test (SMART)", "conditions": "H2O2 0.15 M, positive control", "experimental": "The wing spot test was performed to evaluate genotoxicity assays following the standard procedure [14]. Briefly, trans-heterozygous larvae for mwh and flr^3 genes were obtained by crossing four day-old virgin flr^3 females with mwh males in a 2:1 ratio. Four days after fertilization, females were allowed to lay eggs in fresh yeast medium (25 g yeast and 4 mL sterile distilled water) for 8 h in order to obtain synchronized larvae. After 72 h, larvae were collected, washed with distilled water, and clustered in groups of 100 individuals. […] Adult flies were collected and stored in 70% ethanol until the wings were removed and mounted on slides using Faure’s solution. Mutant spots were assessed in both dorsal and ventral surfaces of the wings in a bright light microscope at 400× magnification. The frequencies of each type of mutant clone per wing (single, large or twin spot) were compared with the concurrent negative control [43]. All inconclusive and positive results (p > 0.05) were analysed with the nonparametric U-test of Mann, Whitney and Wilcoxon (α = β = 0.05)."}}, "note": "“And” between values parts separate entries of the source, which are not always exact repeats. Equal entries are not always repeated.", "data": [{"smiles": "OO", "note": "[H2O2, hydrogen peroxide, reference compound]", "values": [{"measurement": "Survival (%)", "setting": "Drosophila melanogaster [1]", "value": "60% and 38.46% and 58%"}, {"measurement": "Twin Spots m = 5", "setting": "Drosophila melanogaster [2]", "value": 0, "unit": "clones per wing"}, {"measurement": "Large Simple Spots (>2 Cells) m = 5", "setting": "Drosophila melanogaster [2]; No. of spots in parentheses", "value": "0.05 (2) clones per wing"}, {"measurement": "Small Single Spots (1–2 Cells) m = 2", "setting": "Drosophila melanogaster [2]; No. of spots in parentheses", "value": "0.375 (15) clones per wing"}, {"measurement": "Total Spots m = 2", "setting": "Drosophila melanogaster [2]; No. of spots in parentheses", "value": "0.425 (17) clones per wing"}]}]}
